Structures can show the parent of a compound that is named as a salt.
Legend:
[1] = system: Mouse preadipocyte strain 3T3-L1; test: Inhibition of differentiation as an indication of acetic acid uptake; assay type: cell-based; details: Mus musculus, 3T3-L1, 0.1 μM test substance, control (0.01% dimethylsulfoxide) = 100%, read-out: Rate of Uptake (%) of [2-14C] acetic acid
Procedure: As the basal medium, Dulbecco's modified Eagle's (DEM) medium (NISSUI PHARMACEUTICAL CO., LTD) was used. […] All culturing in the present Test Example was carried out in a CO2 incubator at 37° C. and 10% CO2 concentration.
The successively cultured 3T3-L1 cells were inoculated in a Biocoat Collagen I 96-well white/clear plate (Becton Dickinson and Co.) at a concentration of 4,900 cells/well, and were cultured in the basal medium containing added 10% (v/v) inactivated bovine fetal serum (FBS) for 10 days.
The medium was replaced with a differentiation-inducing medium in which inactivated FBS (final concentration: 5%), insulin (Sigma-Aldrich Japan K. K., final concentration: 10 μg/mL), isobutyl methyl xanthine (Aldrich K. K., final concentration: 0.5 mM) and dexamethazone (final concentration: 1 μM) were added so as to be at the final concentrations indicated in the parentheses. The cells were divided in the following 2 groups and were cultured for 4 days; 1) in the presence of 0.01% (v/v) dimethylsulfoxide, and 2) in the presence of 0.01% (v/v) dimethylsulfoxide in which was dissolved 1 mM of the test substance (final concentration of 0.1 μM). Then, the medium was further replaced with a maintenance medium in which inactivated […] and insulin were added to the base medium so as to be at final concentrations of 5% and 100 ng/mL, respectively, and the cells were cultured for 2 days.
The inhibitory activity of the test compound against cell differentiation was assayed by using uptake of [2-^14C] acetic acid into the cultured cells as an indicator. […] Then the cells were further incubated with the newly prepared medium for 1 hr. After washing the well with PBS (−), the cells were dried. To these wells, 100 μL/well of a scintillation cocktail (Hewlett-Packard Co., MICROSCINT-20 PACKARD) were added and their radioactivities were determined with a Packard TopCont microplate Scintillation Counter (Hewlett-Packard Co., PACKARD) and the uptake level of [2-^14C] acetic acid into the cultured cell was calculated.
On the basis of the calculated uptake level of [2-^14C] acetic acid into the cultured cells, the relative uptake level of [2-^14C] acetic acid in the group treated with the test compound was calculated against the uptake level of [2-^14C] acetic acid in the presence of 0.01% (v/v) dimethylsulfoxide solution described in 1) (100%).
Value=Uptake Level (cpm) of [2-^14C] Acetic Acid in the Presence of the Test Substance
Control=Uptake Level (cpm) of [2-^14C] Acetic Acid in the Control Group (0.01% dimethylsulfoxide)
Uptake Rate (%) of [2-^14C] Acetic Acid=100×[Value]/[Control]

[2] = system: leptin production; test: Enhancing activity for leptin production in adipocytes (ELISA); assay type: cell-based, rat; details: Rattus norvegicus, Adipocyte, 24 h, leptin concentration as % of control group, read-out: Facilitating activity to produce leptin; for activity at 0.1 µM: 100 nm
Procedure: Hanks solution was used for collection of adipose tissue. The Hanks solution was prepared by filtration of a mixed solution (pH: 7.5) of 120 mM NaCl, 4.8 mM KCl, 0.74 mM MgSO4, 0.30 mM Na2HPO4, 0.40 mM KH2PO4, 20 mM HEPES, 0.05% (w/v) glucose, 2% (w/v) BSA (Sigma-Aldrich Japan K. K., Cat. No. A7888), 0.95 mM CaCl2, 4.17 mM NaHCO3 and 1% (v/v) penicillin-streptomycin liquid (GIBCO BRL, Cat. No. 15140-122). The adipocytes were cultured in Dulbecco's modified Eagle's medium (GIBCO BRL, Cat. No. 11995-040) mixed with DMEM/F-12 (GIBCO BRL, Cat. No. 11320-033) at a ratio of 1:1, and added 0.2% (v/v) Hanks solution, 0.2 μg/L sodium selenite (GIBCO BRL, Cat. No. 13012-018), 0.002% (v/v) ethanolamine, 25 mM HEPES and 1% (v/v) penicillin-streptomycin liquid (GIBCO BRL, Cat. No. 15140-122). As many as possible of the other reagents used were special grade. In this experiment, the cells were cultured in a CO2 incubator (37° C., 95% humidity, 5% CO2).
Male Wistar Imamichi rats of 6 weeks old were sacrificed by bleeding following decapitation, and adipose tissue was removed from the epididymis and sectioned after the vessels were removed in warmed Hanks solution at 37° C. and were weighed. One (1) mL of Hanks solution containing 10 mg collagenase (Wako Pure Chemical Industries, Ltd., 034-10533) was added to the adipose tissue prepared. The solution was transferred into a tube having a volume of 50 mL, and the cells were evenly dispersed by incubation under gentle shaking at 37° C., 90 rpm, for 50 min. Then 20 mL of Hanks solution were added and filtrated through Nylon-mesh with a mesh diameter of 200 μm for removal of undigested tissue pieces. The floating adipocytes were separated from sediments and substances located in the lower layer by centrifugation at 1,000 rpm for 1 min at room temperature. The sediment and 22 mL of the low layer were pulled out with a probe, and the floating adipocytes were recovered. This procedure was repeated twice with Hanks solution and for 4 times with the culture medium. After these procedures the adipocytes were suspended in the culture medium at a volume of 60 mL per 1 g of the adipose tissue weighed previously. 100 μL of the suspended solution were plated in each well of a 96-well microplate (ASAHI TECHNO GLASS Corp.) In the group treated with the test compound, 1 μL/well of DMSO solution containing the dissolved the test compound at concentrations of 200 μM, 20 μM, 2 μM and 0.2 μM (final concentrations of the test compound: 1 μM, 100 nM, 10 nM and 1 nM, respectively) was plated in each of the well. In the control group, 1 μL/well of DMSO (final concentration: 0.1% (v/v)) was plated in each well. The plate was placed stationary in a CO2 incubator for 1 hr or longer, and the contents in the solution were equilibrated at 37° C. After they were equilibrated, the solution in each well was stirred with a magnetic stirrer in a water bath and the suspended solution maintained at 37° C. was plated into each well of the plate at 100 μL/well. After incubation of the cells for 24 hr, the suspended solution of cells was filtrated through a filter for the microplate, MultiScreen (MILLOPORE, MDV-N65). The concentration of leptin in the filtrated solution was determined with ELISA methods by using a Rat Leptin Determination Kit-IBL (Immuno-Biological Laboratories Co., Ltd., Cat. No. 17195). The facilitating activity of the compound to produce leptin was calculated from the following equation based on the concentration of leptin determined.
Facilitating Activity of the Compound to Produce Leptin (%)=(A/B)×100
A: Concentration of Leptin in the Treated Group with the Test Compound.
B: Concentration of Leptin in the Control Group.

SMILES | activity at 0.1 µM [1] [%] | activity at 1 µM [2] [%] | activity at 0.1 µM [2] [%] | activity at 0.01 µM ([2]; 10 nm) [%]
Cc1cccc(C(C)C)c1NC(=O)c1cc([N+](=O)[O-])ccc1Cl [Example 19, N-(2-Isopropyl-6-methylphenyl)-(2-chloro-5-nitrophenyl)carboxamide] | 64.8 | – | – | –
O=C(O)c1ccc(NC(=O)c2cc([N+](=O)[O-])ccc2Cl)cc1 [Example 27, 4-[(2-Chloro-5-nitrophenyl)carbonylamino]benzoic Acid] | 66 | – | – | –
CCOC(=O)c1c[nH]nc1NC(=O)c1cc([N+](=O)[O-])ccc1Cl [Example 71, N-(4-Ethoxycarbonylpyrazol-3-yl)-(2-chloro-5-nitrophenyl)carboxamide] | 65.8 | – | – | –
CC(=O)Oc1c(C)c(C)c2c(c1C)C(=O)CC(C)(COc1ccc(NC(=O)c3cc([N+](=O)[O-])ccc3Cl)cc1)O2 (stereo not drawn) [Example 91, N-[4-(6-Acetoxy-2,5,7,8-tetramethyl-4-oxochroman-2-ylmethoxy)phenyl]-(2-chloro-5-nitrophenyl)carboxamide] | 85.8 | 114 | 110 | –
CCCCCCCCCCCCCCc1sc(NC(=O)c2cc([N+](=O)[O-])ccc2Cl)nc1-c1ccccc1 [Example 109, N-(4-Phenyl-5-tetradecylthiazol-2-yl)-(2-chloro-5-nitrophenyl)carboxamide] | 64.6 | 112 | – | –
Cc1ccc(NS(=O)(=O)c2ccc(NC(=O)c3cc([N+](=O)[O-])ccc3Cl)cc2)cc1 [Example 144, N-[4-(4-Tolylaminosulfonyl)phenyl]-(2-chloro-5-nitrophenyl)carboxamide] | 82.2 | – | – | –
CCCCCCCCN(CCCCCCCC)c1ccc(-c2ccc(NC(=O)c3cc([N+](=O)[O-])ccc3Cl)cc2)cc1 [Example 185, N-[4-[4-(N,N-Dioctylamino)phenyl]phenyl]-(2-chloro-5-nitrophenyl)carboxamide Hydrochloride] | – | 123 | 132 | 122

— patent US20030134859A1 (SANKYO COMPANY, LIMITED, priority 2000, published 2003)
